Data from patent publication US11384060B2, “Amide compounds and use thereof” (ALPHALA CO., LTD., priority 2017, dated 2022).

Assays:
[1] = target: T1, glucagon receptor (GCGR) overexpressed CHO-K1 cells or human primary hepatocytes (Homo sapiens, UniProt P47871); assay: Glucagon cAMP inhibition assay (Cisbio cAMP Dynamic 2 HTRF); format: cell-based; settings: inhibition of glucagon (EC50 concentration) induced cAMP production
T1 construct: expressed in transfected cells; host or cells: GCGR overexpressed CHO-K1 cells or human primary hepatocytes (endogenous receptor)
T1 sequence (P47871 26-477): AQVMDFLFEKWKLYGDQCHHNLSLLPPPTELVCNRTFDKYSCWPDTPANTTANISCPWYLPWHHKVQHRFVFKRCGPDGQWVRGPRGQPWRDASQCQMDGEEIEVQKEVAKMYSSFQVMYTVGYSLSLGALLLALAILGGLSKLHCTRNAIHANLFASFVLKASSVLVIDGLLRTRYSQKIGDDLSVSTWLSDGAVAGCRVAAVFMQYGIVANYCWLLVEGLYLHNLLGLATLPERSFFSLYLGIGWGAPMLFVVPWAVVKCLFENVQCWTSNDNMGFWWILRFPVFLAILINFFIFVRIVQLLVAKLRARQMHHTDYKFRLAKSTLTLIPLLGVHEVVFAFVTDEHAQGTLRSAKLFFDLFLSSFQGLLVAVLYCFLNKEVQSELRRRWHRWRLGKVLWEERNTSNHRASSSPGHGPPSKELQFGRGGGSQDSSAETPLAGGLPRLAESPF
Summary of the method: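 GCGR-overexpressing CHO-K1 cells or human primary hepatocytes in HBSS with 0.1% BSA and 800 nM IBMX, pre-incubated 30 min with serially diluted compounds (1% DMSO final), then stimulated 30 min at room temperature with glucagon at its EC50. cAMP measured by HTRF after 60 min lysis; IC50 by non-linear regression.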

glucagon receptor (GCGR) = target: T2, glucagon receptor (GCGR) (Homo sapiens, UniProt P47871); assay: I125-glucagon binding assay (competition, GCGR membrane fractions); settings: competition with I125-glucagon 0.0625 nM, membrane fractions of GCGR overexpressed CHO-K1 cells
T2 construct: expressed in transfected cells; host or cells: CHO-K1 cells overexpressing GCGR (membrane fractions)
T2 sequence (P47871 26-477): as above
Summary of the method: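 Membranes from CHO-K1 cells overexpressing GCGR, 7.5 μg/well in 50 mM Tris pH 7.4 with 0.5% BSA, were preincubated 5 min with serially diluted compounds, then given 0.0625 nM final I^125-glucagon for 30 min at 25° C. Bound label was filtered on PEI-coated GF/B and counted; IC50 by non-linear regression.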

IC50 cAMP [1] [nM]	IC50 (glucagon receptor (GCGR)) [nM]	SMILES
241.4	90	CC[C@H](C)[C@@H](COc1cc(C)c(-c2ccc(C(F)(F)F)cc2)c(C)c1)Nc1ccc(C(=O)NCCC(=O)O)cc1 [Compound 2-10, 3-(4-(((2S,3S)-1-((2,6-dimethyl-4′-(trifluoromethyl)-[1,1′-biphenyl]-4-yl)oxy)-3-methylpentan-2-yl)amino)benzamido)propanoic Acid]
277.2	872	Cc1cc(OC[C@@H](Nc2ccc(C(=O)NCCC(=O)O)cc2)C(C)C)cc(C)c1-c1ccc(C(F)(F)F)cc1Cl [Compound 2-11, (S)-3-(4-((1-((2′-chloro-2,6-dimethyl-4′-(trifluoromethyl)-[1,1′-biphenyl]-4-yl)oxy)-3-methylbutan-2-yl)amino)benzamido)propanoic Acid]
62.8	108	CCCC[C@@H](COc1cc(C)c(-c2cc3ccccc3o2)c(C)c1)Nc1ccc(C(=O)NCCC(=O)O)cc1 [Compound 2-12, (S)-3-(4-((1-(4-(benzofuran-2-yl)-3,5-dimethylphenoxy)hexan-2-yl)amino)benzamido)propanoic Acid]
148.5	167	CCCC[C@@H](COc1cc(C)c(-c2cc3ccccc3o2)c(C)c1)Nc1ccc(C(=O)NCc2nnn[nH]2)cc1 [Compound 2-13, (S)—N-((1H-tetrazol-5-yl)methyl)-4-((1-(4-(benzofuran-2-yl)-3,5-dimethylphenoxy)hexan-2-yl)amino)benzamide]
1822	217	CC[C@H](C)[C@@H](COc1ccc(-c2cc3ccccc3o2)c(Cl)c1)Nc1ccc(C(=O)NCc2nnn[nH]2)cc1 [Compound 3-1, N-((1H-tetrazol-5-yl)methyl)-4-(((2S,3S)-1-(4-(benzofuran-2-yl)-3-chlorophenoxy)-3-methylpentan-2-yl)amino)benzamide]
>10000	135	CC(C)[C@@H](COc1ccc(-c2ccc(C(F)(F)F)cc2Cl)c(Cl)c1)Nc1ccc(C(=O)NC[C@@H](O)C(=O)O)cc1 [Compound 3-2, (R)-3-(4-(((S)-1-((2,2′-dichloro-4′-(trifluoromethyl)-[1,1′-biphenyl]-4-yl)oxy)-3-methylbutan-2-yl)amino)benzamido)-2-hydroxypropanoic Acid]
1250	86	CC(C)[C@@H](COc1ccc(-c2ccc(C(F)(F)F)cc2Cl)c(Cl)c1)Nc1ccc(C(=O)NCc2nnn[nH]2)cc1 [Compound 3-3, (S)—N-((1H-tetrazol-5-yl)methyl)-4-((1-((2,2′-dichloro-4′-(trifluoromethyl)-[1,1′-biphenyl]-4-yl)oxy)-3-methylbutan-2-yl)amino)benzamide]
313.6	17	CC(C)[C@@H](COc1ccc(-c2ccc(C(F)(F)F)cc2Cl)c(Cl)c1)Nc1ccc(C(=O)NCCC(=O)O)cc1 [Compound 3-4, (S)-3-(4-((1-((2,2′-dichloro-4′-(trifluoromethyl)-[1,1′-biphenyl]-4-yl)oxy)-3-methylbutan-2-yl)amino)benzamido)propanoic Acid]
1863	117	CC(C)[C@@H](COc1ccc(-c2cc3ccccc3o2)c(Cl)c1)Nc1ccc(C(=O)NCc2nnn[nH]2)cc1 [Compound 3-5, (S)—N-((1H-tetrazol-5-yl)methyl)-4-((1-(4-(benzofuran-2-yl)-3-chlorophenoxy)-3-methylbutan-2-yl)amino)benzamide]
9291	184	CC(C)[C@@H](COc1ccc(-c2cc3ccccc3o2)c(Cl)c1)Nc1ccc(C(=O)NC[C@@H](O)C(=O)O)cc1 [Compound 3-6, (R)-3-(4-(((S)-1-(4-(benzofuran-2-yl)-3-chlorophenoxy)-3-methylbutan-2-yl)amino)benzamido)-2-hydroxypropanoic Acid]
363.5	103	CC(C)[C@@H](COc1ccc(-c2cc3ccccc3o2)c(Cl)c1)Nc1ccc(C(=O)NCCC(=O)O)cc1 [Compound 3-7, (S)-3-(4-((1-(4-(benzofuran-2-yl)-3-chlorophenoxy)-3-methylbutan-2-yl)amino)benzamido)propanoic Acid]
35	26	CCCC[C@@H](COc1ccc(-c2ccc(C(F)(F)F)cc2Cl)c(Cl)c1)Nc1ccc(C(=O)NCCC(=O)O)cc1 [Compound 3-8, (S)-3-(4-((1-((2,2′-dichloro-4′-(trifluoromethyl)-[1,1′-biphenyl]-4-yl)oxy)hexan-2-yl)amino)benzamido)propanoic Acid]
528.1	37	CCCC[C@@H](COc1ccc(-c2ccc(C(F)(F)F)cc2Cl)c(Cl)c1)Nc1ccc(C(=O)NCc2nnn[nH]2)cc1 [Compound 3-9, (S)—N-((1H-tetrazol-5-yl)methyl)-4-((1-((2,2′-dichloro-4′-(trifluoromethyl)-[1,1′-biphenyl]-4-yl)oxy)hexan-2-yl)amino)benzamide]
88.7	20	CCCC[C@@H](COc1ccc(-c2cc3ccccc3o2)c(Cl)c1)Nc1ccc(C(=O)NCCC(=O)O)cc1 [Compound 3-10, (S)-3-(4-((1-(4-(benzofuran-2-yl)-3-chlorophenoxy)hexan-2-yl)amino)benzamido)propanoic Acid]
672.8	149	CCCC[C@@H](COc1ccc(-c2cc3ccccc3o2)c(Cl)c1)Nc1ccc(C(=O)NCc2nnn[nH]2)cc1 [Compound 3-11, (S)—N-((1H-tetrazol-5-yl)methyl)-4-((1-(4-(benzofuran-2-yl)-3-chlorophenoxy)hexan-2-yl)amino)benzamide]
28.1	30	CCCC[C@@H](COc1ccc(-c2ccc(Cl)cc2Cl)c(Cl)c1)Nc1ccc(C(=O)NCCC(=O)O)cc1 [Compound 3-12, (S)-3-(4-((1-((2,2′,4′-trichloro-[1,1′-biphenyl]-4-yl)oxy)hexan-2-yl)amino)benzamido)propanoic Acid]
279.9	92	CCCC[C@@H](COc1ccc(-c2ccc(Cl)cc2Cl)c(Cl)c1)Nc1ccc(C(=O)NCc2nnn[nH]2)cc1 [Compound 3-13, (S)—N-((1H-tetrazol-5-yl)methyl)-4-((1-((2,2′,4′-trichloro-[1,1′-biphenyl]-4-yl)oxy)hexan-2-yl)amino)benzamide]
115.4	58	CC(C)[C@@H](COc1cc(Cl)c(-c2cc3ccccc3o2)cc1Cl)Nc1ccc(C(=O)NCCC(=O)O)cc1 [Compound 3-14, (S)-3-(4-((1-(4-(benzofuran-2-yl)-2,5-dichlorophenoxy)-3-methylbutan-2-yl)amino)benzamido)propanoic Acid]
367.7	51	CCCC[C@@H](COc1ccc(-c2ccc(C(F)(F)F)cc2)c(Cl)c1)Nc1ccc(C(=O)NCCC(=O)O)cc1 [Compound 3-16, (S)-3-(4-((1-((2-chloro-4′-(trifluoromethyl)-[1,1′-biphenyl]-4-yl)oxy)hexan-2-yl)amino)benzamido)propanoic Acid]
105	111	CCCC[C@@H](COc1ccc(-c2ccc(C(F)(F)F)cc2)c(Cl)c1)Nc1ccc(C(=O)NCc2nnn[nH]2)cc1 [Compound 3-17, (S)—N-((1H-tetrazol-5-yl)methyl)-4-((1-((2-chloro-4′-(trifluoromethyl)-[1,1′-biphenyl]-4-yl)oxy)hexan-2-yl)amino)benzamide]
